# Source: US11959086B2, “Dual transit peptides for targeting polypeptides” (BASF AGRO B.V., priority 2016, dated 2024)
# Experiments:
# [1] = test system: Arabidopsis plants, construct OPITE_PPO_wt_tpFNR (SEQ ID NO 121); experiment: Tolerance of transgenic T1 Arabidopsis plants to herbicides, greenhouse (Tolerance Factor); format: in vivo, Arabidopsis thaliana
# [2] = test system: Arabidopsis plants, construct CHLSP_PPO_wt_tpFNR (SEQ ID NO 128); experiment: as above; format: in vivo, Arabidopsis thaliana
# [3] = test system: Arabidopsis plants, construct hemF_tplAMATU_PPO2 (SEQ ID NO 115); experiment: as above; format: in vivo, Arabidopsis thaliana
# [4] = test system: Arabidopsis plants, construct hemG_tpsAMATU_PPO2 (SEQ ID NO 119); experiment: as above; format: in vivo, Arabidopsis thaliana
# [5] = test system: Arabidopsis plants, construct hemF_tpFNR (SEQ ID NO 114); experiment: as above; format: in vivo, Arabidopsis thaliana
# [6] = test system: empty vector-transformed leaf discs; experiment: PSII yield inhibition in tobacco leaf discs (chlorophyll fluorescence, imaging PAM); format: cell-based; conditions: Nicotiana benthamiana, 48 h, read-out: IC50 of PSII yield inhibition
# [7] = test system: Arabidopsis plants, construct RHOMA_PPO_wt_tpAMATU_PPO2 (SEQ ID NO 127); experiment: Tolerance of transgenic T1 Arabidopsis plants to herbicides, greenhouse (Tolerance Factor); format: in vivo, Arabidopsis thaliana
# [8] = test system: Arabidopsis plants, construct hemG_tplAMATU_PPO2 (SEQ ID NO 118); experiment: as above; format: in vivo, Arabidopsis thaliana
# [9] = test system: Wildtype/non-transgenic Arabidopsis thaliana; experiment: Herbicide injury evaluation of Arabidopsis plants, greenhouse; format: in vivo; conditions: scale 0-100
# [10] = test system: transgenic Arabidopsis thaliana, transgene SEQ ID NO 121; experiment: as above; format: in vivo; conditions: Table 3, scale 0-100
# [11] = test system: Arabidopsis plants, construct RHOMA_PPO_wt_tpFNR (SEQ ID NO 123); experiment: Tolerance of transgenic T1 Arabidopsis plants to herbicides, greenhouse (Tolerance Factor); format: in vivo, Arabidopsis thaliana
# [12] = test system: transgenic Arabidopsis thaliana, transgene SEQ ID NO 128; experiment: Herbicide injury evaluation of Arabidopsis plants, greenhouse; format: in vivo; conditions: Table 3, scale 0-100
# [13] = test system: Arabidopsis plants, construct hemG_tpFNR (SEQ ID NO 117); experiment: Tolerance of transgenic T1 Arabidopsis plants to herbicides, greenhouse (Tolerance Factor); format: in vivo, Arabidopsis thaliana
# [14] = test system: transgenic Arabidopsis thaliana, transgene SEQ ID NO 120; experiment: Herbicide injury evaluation of Arabidopsis plants, greenhouse; format: in vivo; conditions: Table 4, scale 0-100
# [15] = test system: Arabidopsis plants, construct hemF_tpsAMATU_PPO2 (SEQ ID NO 116); experiment: Tolerance of transgenic T1 Arabidopsis plants to herbicides, greenhouse (Tolerance Factor); format: in vivo, Arabidopsis thaliana
# [16] = test system: transgenic Arabidopsis thaliana, transgene SEQ ID NO 119; experiment: Herbicide injury evaluation of Arabidopsis plants, greenhouse; format: in vivo; conditions: Table 3, scale 0-100
# [17] = test system: Arabidopsis plants, construct RHOMA_PPO_F420V_tpFNR (SEQ ID NO 124); experiment: Tolerance of transgenic T1 Arabidopsis plants to herbicides, greenhouse (Tolerance Factor); format: in vivo, Arabidopsis thaliana
# [18] = test system: transgenic Arabidopsis thaliana, transgene SEQ ID NO 118; experiment: Herbicide injury evaluation of Arabidopsis plants, greenhouse; format: in vivo; conditions: scale 0-100
# [19] = test system: transgenic Arabidopsis thaliana, transgene SEQ ID NO 117; experiment: as above; format: in vivo; conditions: Table 3, scale 0-100
structure (smiles),measurement,setting,value
"CC(C)N(C)S(=O)(=O)NC(=O)c1cc(-n2c(=O)cc(C(F)(F)F)n(C)c2=O)c(F)cc1Cl [Saflufenacil, saflufenacil]",Tolerance Factor,[1],14
same,Tolerance Factor,[2],640
same,Tolerance Factor,[3],1
same,Tolerance Factor,[4],1
same,Tolerance Factor,[5],1
same,IC50,[6],110 nM
same,Tolerance Factor,[7],1
same,Tolerance Factor,[8],2200
same,Herbicide injury evaluation 14 days after herbicide treatment,"[9]; Table 3, 50 g ai/ha + 1% MSO",100
same,Herbicide injury evaluation 14 days after herbicide treatment,"[9]; Table 3, 150 g ai/ha + 1% MSO",100
same,Herbicide injury evaluation 14 days after herbicide treatment,"[9]; Table 3, 300 g ai/ha + 1% MSO",100
same,Herbicide injury evaluation 14 days after herbicide treatment,"[9]; Table 4, 50 g ai/ha + 1% MSO",100
same,Herbicide injury evaluation 14 days after herbicide treatment,"[9]; Table 4, 150 g ai/ha + 1% MSO",100
same,Herbicide injury evaluation 14 days after herbicide treatment,"[9]; Table 4, 300 g ai/ha + 1% MSO",100
same,Herbicide injury evaluation 14 days after herbicide treatment,"[10]; SEQ ID NO 121 G, 50 g ai/ha + 1% MSO",100
same,Herbicide injury evaluation 14 days after herbicide treatment,"[10]; SEQ ID NO 121 G, 150 g ai/ha + 1% MSO",100
same,Herbicide injury evaluation 14 days after herbicide treatment,"[10]; SEQ ID NO 121 G, 300 g ai/ha + 1% MSO",100
same,Herbicide injury evaluation 14 days after herbicide treatment,"[10]; SEQ ID NO 121 H, 50 g ai/ha + 1% MSO",100
same,Herbicide injury evaluation 14 days after herbicide treatment,"[10]; SEQ ID NO 121 H, 150 g ai/ha + 1% MSO",100
same,Herbicide injury evaluation 14 days after herbicide treatment,"[10]; SEQ ID NO 121 H, 300 g ai/ha + 1% MSO",100
same,Tolerance Factor,[11],1
same,Herbicide injury evaluation 14 days after herbicide treatment,"[12]; SEQ ID NO 128 D, 50 g ai/ha + 1% MSO",93
same,Herbicide injury evaluation 14 days after herbicide treatment,"[12]; SEQ ID NO 128 D, 150 g ai/ha + 1% MSO",97
same,Herbicide injury evaluation 14 days after herbicide treatment,"[12]; SEQ ID NO 128 D, 300 g ai/ha + 1% MSO",97
same,Herbicide injury evaluation 14 days after herbicide treatment,"[12]; SEQ ID NO 128 E, 50 g ai/ha + 1% MSO",97
same,Herbicide injury evaluation 14 days after herbicide treatment,"[12]; SEQ ID NO 128 E, 150 g ai/ha + 1% MSO",97
same,Herbicide injury evaluation 14 days after herbicide treatment,"[12]; SEQ ID NO 128 E, 300 g ai/ha + 1% MSO",97
same,Tolerance Factor,[13],332
same,Herbicide injury evaluation 14 days after herbicide treatment,"[14]; SEQ ID NO 120 J, 50 g ai/ha + 1% MSO",80
same,Herbicide injury evaluation 14 days after herbicide treatment,"[14]; SEQ ID NO 120 J, 150 g ai/ha + 1% MSO",83
same,Herbicide injury evaluation 14 days after herbicide treatment,"[14]; SEQ ID NO 120 J, 300 g ai/ha + 1% MSO",85
same,Herbicide injury evaluation 14 days after herbicide treatment,"[14]; SEQ ID NO 120 M, 50 g ai/ha + 1% MSO",95
same,Herbicide injury evaluation 14 days after herbicide treatment,"[14]; SEQ ID NO 120 M, 150 g ai/ha + 1% MSO",93
same,Herbicide injury evaluation 14 days after herbicide treatment,"[14]; SEQ ID NO 120 M, 300 g ai/ha + 1% MSO",88
same,Tolerance Factor,[15],1
same,Herbicide injury evaluation 14 days after herbicide treatment,"[16]; SEQ ID NO 119 A, 50 g ai/ha + 1% MSO",100
same,Herbicide injury evaluation 14 days after herbicide treatment,"[16]; SEQ ID NO 119 A, 150 g ai/ha + 1% MSO",100
same,Herbicide injury evaluation 14 days after herbicide treatment,"[16]; SEQ ID NO 119 A, 300 g ai/ha + 1% MSO",100
same,Herbicide injury evaluation 14 days after herbicide treatment,"[16]; SEQ ID NO 119 B, 50 g ai/ha + 1% MSO",100
same,Herbicide injury evaluation 14 days after herbicide treatment,"[16]; SEQ ID NO 119 B, 150 g ai/ha + 1% MSO",100
same,Herbicide injury evaluation 14 days after herbicide treatment,"[16]; SEQ ID NO 119 B, 300 g ai/ha + 1% MSO",100
same,Tolerance Factor,[17],1
same,Herbicide injury evaluation 14 days after herbicide treatment,"[18]; Table 3, SEQ ID NO 118 Q, 50 g ai/ha + 1% MSO",55
same,Herbicide injury evaluation 14 days after herbicide treatment,"[18]; Table 3, SEQ ID NO 118 Q, 150 g ai/ha + 1% MSO",58
same,Herbicide injury evaluation 14 days after herbicide treatment,"[18]; Table 3, SEQ ID NO 118 Q, 300 g ai/ha + 1% MSO",68
same,Herbicide injury evaluation 14 days after herbicide treatment,"[18]; Table 3, SEQ ID NO 118 R, 50 g ai/ha + 1% MSO",5
same,Herbicide injury evaluation 14 days after herbicide treatment,"[18]; Table 3, SEQ ID NO 118 R, 150 g ai/ha + 1% MSO",65
same,Herbicide injury evaluation 14 days after herbicide treatment,"[18]; Table 3, SEQ ID NO 118 R, 300 g ai/ha + 1% MSO",48
same,Herbicide injury evaluation 14 days after herbicide treatment,"[18]; Table 4, SEQ ID NO 118 Q, 50 g ai/ha + 1% MSO",63
same,Herbicide injury evaluation 14 days after herbicide treatment,"[18]; Table 4, SEQ ID NO 118 Q, 150 g ai/ha + 1% MSO",63
same,Herbicide injury evaluation 14 days after herbicide treatment,"[18]; Table 4, SEQ ID NO 118 Q, 300 g ai/ha + 1% MSO",65
same,Herbicide injury evaluation 14 days after herbicide treatment,"[18]; Table 4, SEQ ID NO 118 R, 50 g ai/ha + 1% MSO",38
same,Herbicide injury evaluation 14 days after herbicide treatment,"[18]; Table 4, SEQ ID NO 118 R, 150 g ai/ha + 1% MSO",45
same,Herbicide injury evaluation 14 days after herbicide treatment,"[18]; Table 4, SEQ ID NO 118 R, 300 g ai/ha + 1% MSO",60
same,Herbicide injury evaluation 14 days after herbicide treatment,"[19]; SEQ ID NO 117 C, 50 g ai/ha + 1% MSO",100
same,Herbicide injury evaluation 14 days after herbicide treatment,"[19]; SEQ ID NO 117 C, 150 g ai/ha + 1% MSO",98
same,Herbicide injury evaluation 14 days after herbicide treatment,"[19]; SEQ ID NO 117 C, 300 g ai/ha + 1% MSO",97
same,Herbicide injury evaluation 14 days after herbicide treatment,"[19]; SEQ ID NO 117 I, 50 g ai/ha + 1% MSO",94
same,Herbicide injury evaluation 14 days after herbicide treatment,"[19]; SEQ ID NO 117 I, 150 g ai/ha + 1% MSO",99
same,Herbicide injury evaluation 14 days after herbicide treatment,"[19]; SEQ ID NO 117 I, 300 g ai/ha + 1% MSO",95
